Measured values from patent US9409905B2, “Antibacterial compounds and methods for use” (PTC THERAPEUTICS, INC., priority 2011, dated 2016).
≈ marks a conversion by molar mass, not a printed value.

What was measured:
[1] = tested on: Escherichia coli (E. coli) BAS849; experiment: Antibacterial activity, microbroth dilution MIC (Table 1); format: cell-based; settings: microbroth dilution, super sensitive Gram-negative E. coli BAS849, read-out: MIC, BAS849
Summary of the method: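 Microbroth dilution was used. MIC, in μg/mL, is the lowest drug concentration preventing macroscopically visible growth under the test conditions.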

[2] = tested on: Staphylococcus aureus (S. aureus) 29213; experiment: as above; format: cell-based; settings: microbroth dilution, Gram-positive S. aureus 29213, read-out: MIC, 29213
Summary of the method: (§1)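 Broth microdilution against S. aureus 29213, E. coli 25922 and hypersensitive E. coli BAS849. MIC in μg/mL is the lowest drug concentration preventing macroscopically visible growth under test conditions.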

[3] = tested on: E. coli 25922; experiment: as above; format: cell-based, Escherichia coli; settings: Escherichia coli; microbroth dilution; control Gram-negative E. coli 25922 strain; read-out: MIC, 25922
Summary of the method: as §1

[4] = tested on: E. coli LZ3111; experiment: Antibacterial activity, MIC, quinolone resistant strain (Table 2); format: cell-based; settings: Escherichia coli, LZ3111, read-out: MIC LZ3111
Summary of the method: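 MIC values (μg/mL) came from a microbroth dilution assay, scored as the lowest drug concentration at which no growth was visible by eye.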

[5] = tested on: E. coli ELZ4251; experiment: Antibacterial activity, MIC, multi-drug resistant clinical isolate (Table 3); format: cell-based; settings: Escherichia coli
From the text: The antibacterial activity from a microbroth dilution method may be presented as the minimum inhibitory concentration (MIC in μg/mL). The MIC value is the lowest concentration of drug which prevents macroscopically visible growth under test conditions.
Antibacterial activity of test compounds against E. coli ELZ4000 and E. coli ELZ4251 multi-drug resistant clinical isolates is shown in Table 3.

[6] = tested on: Acinetobacter baumannii (A. baumannii) BAA747; experiment: Antibacterial activity, MIC (Table 4); format: cell-based; settings: A. baumannii BAA747, read-out: MIC, BAA747
Summary of the method: (§2)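 Activity was measured by microbroth dilution. The MIC, in μg/mL, is the lowest drug concentration that prevents macroscopically visible growth under the test conditions. The resistant strains are multi-drug resistant clinical isolates.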

[7] = tested on: Klebsiella pneumoniae (K. pneumoniae) 35657; experiment: Antibacterial activity, MIC (Table 4); format: cell-based; settings: K. pneumoniae 35657, read-out: MIC, 35657
Summary of the method: as §2

[8] = tested on: A. baumannii MXX2240; experiment: Antibacterial activity, MIC, resistant strain (Table 4); format: cell-based; settings: Acinetobacter baumannii, MXX2240; resistant A. baumannii MMX2240, multi-drug resistant clinical isolate; read-out: MIC, MMX2240
Summary of the method: as §2

[9] = tested on: K. pneumoniae MXX1232; experiment: as above; format: cell-based; settings: Klebsiella pneumoniae, MXX1232; resistant K. pneumoniae MMX1232, multi-drug resistant clinical isolate; read-out: MIC, MMX1232
Summary of the method: as §2

[10] = tested on: Pseudomonas aeruginosa (P. aeruginosa) 27853; experiment: Antibacterial activity, MIC (Table 5); format: cell-based; settings: P. aeruginosa 27853, read-out: MIC, 27853
Summary of the method: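 Values are MICs in μg/mL, read as the lowest concentration at which no growth is visible by eye. They were determined by a microbroth dilution method.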

SMILES	MIC [1]	MIC [2]	MIC [3]	MIC [4]	MIC [5]	MIC [6]	MIC [7]	MIC [8]	MIC [9]	MIC [10]
CCc1cc(C(=O)O)c(=O)[nH]c1-c1ccc2occc2c1 [Cpd 364, 6-(benzofuran-5-yl)-5-ethyl-2-oxo-1,2-dihydropyridine-3-carboxylic acid]	1 to 3.5 µg/mL (≈ 3.53 to 12.4 µM)	12.5 to 150 µg/mL (≈ 44.1 to 530 µM)	12.5 to 150 µg/mL (≈ 44.1 to 530 µM)	12.5 to 150 µg/mL (≈ 44.1 to 530 µM)	12.5 to 150 µg/mL (≈ 44.1 to 530 µM)	12.5 to 150 µg/mL (≈ 44.1 to 530 µM)	12.5 to 150 µg/mL (≈ 44.1 to 530 µM)	12.5 to 150 µg/mL (≈ 44.1 to 530 µM)	12.5 to 150 µg/mL (≈ 44.1 to 530 µM)	12.5 to 150 µg/mL (≈ 44.1 to 530 µM)
CCc1c(-c2ccc3occc3c2)[nH]c(=O)c(C(=O)O)c1O [Cpd 365, 6-(benzofuran-5-yl)-5-ethyl-4-hydroxy-2-oxo-1,2-dihydropyridine-3-carboxylic acid]	< 1 µg/mL	3.5 to 12.5 µg/mL (≈ 11.7 to 41.8 µM)	12.5 to 150 µg/mL (≈ 41.8 to 501 µM)	3.5 to 12.5 µg/mL (≈ 11.7 to 41.8 µM)	3.5 to 12.5 µg/mL (≈ 11.7 to 41.8 µM)	12.5 to 150 µg/mL (≈ 41.8 to 501 µM)	12.5 to 150 µg/mL (≈ 41.8 to 501 µM)	1 to 3.5 µg/mL (≈ 3.34 to 11.7 µM)	12.5 to 150 µg/mL (≈ 41.8 to 501 µM)	12.5 to 150 µg/mL (≈ 41.8 to 501 µM)
CCc1cc(C(=O)O)c(=O)[nH]c1-c1ccc2sccc2c1 [Cpd 366, 6-(benzo[b]thiophen-5-yl)-5-ethyl-2-oxo-1,2-dihydropyridine-3-carboxylic acid]	< 1 µg/mL	12.5 to 150 µg/mL (≈ 41.8 to 501 µM)	3.5 to 12.5 µg/mL (≈ 11.7 to 41.8 µM)	12.5 to 150 µg/mL (≈ 41.8 to 501 µM)	12.5 to 150 µg/mL (≈ 41.8 to 501 µM)	12.5 to 150 µg/mL (≈ 41.8 to 501 µM)	12.5 to 150 µg/mL (≈ 41.8 to 501 µM)	12.5 to 150 µg/mL (≈ 41.8 to 501 µM)	12.5 to 150 µg/mL (≈ 41.8 to 501 µM)	12.5 to 150 µg/mL (≈ 41.8 to 501 µM)
CCc1c(-c2ccc3c4c([nH]c3c2)CCN(C)C4)[nH]c(=O)c(C(=O)O)c1O [Cpd 451, 5-ethyl-4-hydroxy-6-(2-methyl-2,3,4,5-tetrahydro-1H-pyrido[4,3-b]indol-7-yl)-2-oxo-1,2-dihydropyridine-3-carboxylic acid]	< 1 µg/mL	12.5 to 150 µg/mL (≈ 34 to 408 µM)	< 1 µg/mL	3.5 to 12.5 µg/mL (≈ 9.53 to 34 µM)	–	3.5 to 12.5 µg/mL (≈ 9.53 to 34 µM)	< 1 µg/mL	12.5 to 150 µg/mL (≈ 34 to 408 µM)	12.5 to 150 µg/mL (≈ 34 to 408 µM)	12.5 to 150 µg/mL (≈ 34 to 408 µM)
CCc1c(-c2ccc3c4c([nH]c3c2)CCN(CC)C4)[nH]c(=O)c(C(=O)O)c1O [Cpd 452, 5-ethyl-6-(2-ethyl-2,3,4,5-tetrahydro-1H-pyrido[4,3-b]indol-7-yl)-4-hydroxy-2-oxo-1,2-dihydropyridine-3-carboxylic acid]	< 1 µg/mL	12.5 to 150 µg/mL (≈ 32.8 to 393 µM)	< 1 µg/mL	12.5 to 150 µg/mL (≈ 32.8 to 393 µM)	–	12.5 to 150 µg/mL (≈ 32.8 to 393 µM)	1 to 3.5 µg/mL (≈ 2.62 to 9.18 µM)	12.5 to 150 µg/mL (≈ 32.8 to 393 µM)	12.5 to 150 µg/mL (≈ 32.8 to 393 µM)	12.5 to 150 µg/mL (≈ 32.8 to 393 µM)
CCc1c(-c2ccc3[nH]c(-c4ccc(C#N)cc4)cc3c2)[nH]c(=O)c(C(=O)O)c1O [Cpd 453, 6-(2-(4-cyanophenyl)-1H-indol-5-yl)-5-ethyl-4-hydroxy-2-oxo-1,2-dihydropyridine-3-carboxylic acid]	< 1 µg/mL	1 to 3.5 µg/mL (≈ 2.5 to 8.76 µM)	12.5 to 150 µg/mL (≈ 31.3 to 376 µM)	12.5 to 150 µg/mL (≈ 31.3 to 376 µM)	–	12.5 to 150 µg/mL (≈ 31.3 to 376 µM)	12.5 to 150 µg/mL (≈ 31.3 to 376 µM)	12.5 to 150 µg/mL (≈ 31.3 to 376 µM)	12.5 to 150 µg/mL (≈ 31.3 to 376 µM)	12.5 to 150 µg/mL (≈ 31.3 to 376 µM)
CCc1c(-c2ccc3[nH]c(-c4ccccc4)cc3c2)[nH]c(=O)c(C(=O)O)c1O [Cpd 454, 5-ethyl-4-hydroxy-2-oxo-6-(2-phenyl-1H-indol-5-yl)-1,2-dihydropyridine-3-carboxylic acid]	< 1 µg/mL	< 1 µg/mL	12.5 to 150 µg/mL (≈ 33.4 to 401 µM)	12.5 to 150 µg/mL (≈ 33.4 to 401 µM)	–	12.5 to 150 µg/mL (≈ 33.4 to 401 µM)	12.5 to 150 µg/mL (≈ 33.4 to 401 µM)	12.5 to 150 µg/mL (≈ 33.4 to 401 µM)	12.5 to 150 µg/mL (≈ 33.4 to 401 µM)	12.5 to 150 µg/mL (≈ 33.4 to 401 µM)
CCc1c(-c2ccc3[nH]c(-c4ccc(C(F)(F)F)cc4)cc3c2)[nH]c(=O)c(C(=O)O)c1O [Cpd 455, 5-ethyl-4-hydroxy-2-oxo-6-(2-(4-(trifluoromethyl)phenyl)-1H-indol-5-yl)-1,2-dihydropyridine-3-carboxylic acid]	< 1 µg/mL	3.5 to 12.5 µg/mL (≈ 7.91 to 28.3 µM)	12.5 to 150 µg/mL (≈ 28.3 to 339 µM)	12.5 to 150 µg/mL (≈ 28.3 to 339 µM)	–	12.5 to 150 µg/mL (≈ 28.3 to 339 µM)	12.5 to 150 µg/mL (≈ 28.3 to 339 µM)	12.5 to 150 µg/mL (≈ 28.3 to 339 µM)	12.5 to 150 µg/mL (≈ 28.3 to 339 µM)	12.5 to 150 µg/mL (≈ 28.3 to 339 µM)
